Experimental findings from patent US10759766B2, “Certain chemical entities, compositions, and methods” (NeuPharma, Inc., priority 2011, dated 2020) are described below.

Structures are written as SMILES.

One assay addresses BRAF V600E (Homo sapiens (Human), UniProt P15056, V600E). Put plainly: Z′-LYTE kinase inhibition assay (Invitrogen), BRAF V600E. The format is biochemical. Conditions: 1 μM compound, Z′-LYTE method; read-out: % inhibition at 1 μM against BRAF V600E. Here is the method: (§1) Inhibitory activities Inhibitory activities of compounds against BRAF, and BRAF V600E were measured by Invitrogen using Z′-LYTE® Method as briefly described in the following. 4× Test compounds are dissolved in 1% DMSO. […] ATP solutions are diluted to a 4×ATP working concentration in Kinase Buffer (50 mM HEPES pH 7.5, 0.01% BRIJ-35, 10 mM MgCl2, 1 mM EGTA). Reaction started by 30-second shaking of mixture consisting of 2.5 μL 4× test compound, […] and 2.5 μL 4×ATP Solution on Bar-coded Corning, low volume NBS, black 384-well plate (Corning Cat. #3676). Then the mixture was incubated for 60-minute at room temperature for the kinase reaction, followed by addition of 5 μL of a 1:1024 dilution of development reagent A and 30-second plate shake. The mixture was then incubated for another 60-minute at room temperature for development reaction. Fluorescence was read by plate reader. IC50 was calculated by plotting the concentration of compound vs the percentage of inhibition in treated wells using GraphPad Prism 5.
The scale utilized in Table 3 is as follows: +++ less than 100 nM; and ++ greater than 100 nM.

In a further assay the target is KDR (VEGFR2) (Homo sapiens (Human), UniProt P35968). Put plainly: Z′-LYTE kinase inhibition assay (Invitrogen), KDR. Format: biochemical. To be noted: 1 μM compound, Z′-LYTE method; read-out: % inhibition at 1 μM against KDR. Here is the method: as §1
Chain of KDR (VEGFR2) (P35968 20-1356): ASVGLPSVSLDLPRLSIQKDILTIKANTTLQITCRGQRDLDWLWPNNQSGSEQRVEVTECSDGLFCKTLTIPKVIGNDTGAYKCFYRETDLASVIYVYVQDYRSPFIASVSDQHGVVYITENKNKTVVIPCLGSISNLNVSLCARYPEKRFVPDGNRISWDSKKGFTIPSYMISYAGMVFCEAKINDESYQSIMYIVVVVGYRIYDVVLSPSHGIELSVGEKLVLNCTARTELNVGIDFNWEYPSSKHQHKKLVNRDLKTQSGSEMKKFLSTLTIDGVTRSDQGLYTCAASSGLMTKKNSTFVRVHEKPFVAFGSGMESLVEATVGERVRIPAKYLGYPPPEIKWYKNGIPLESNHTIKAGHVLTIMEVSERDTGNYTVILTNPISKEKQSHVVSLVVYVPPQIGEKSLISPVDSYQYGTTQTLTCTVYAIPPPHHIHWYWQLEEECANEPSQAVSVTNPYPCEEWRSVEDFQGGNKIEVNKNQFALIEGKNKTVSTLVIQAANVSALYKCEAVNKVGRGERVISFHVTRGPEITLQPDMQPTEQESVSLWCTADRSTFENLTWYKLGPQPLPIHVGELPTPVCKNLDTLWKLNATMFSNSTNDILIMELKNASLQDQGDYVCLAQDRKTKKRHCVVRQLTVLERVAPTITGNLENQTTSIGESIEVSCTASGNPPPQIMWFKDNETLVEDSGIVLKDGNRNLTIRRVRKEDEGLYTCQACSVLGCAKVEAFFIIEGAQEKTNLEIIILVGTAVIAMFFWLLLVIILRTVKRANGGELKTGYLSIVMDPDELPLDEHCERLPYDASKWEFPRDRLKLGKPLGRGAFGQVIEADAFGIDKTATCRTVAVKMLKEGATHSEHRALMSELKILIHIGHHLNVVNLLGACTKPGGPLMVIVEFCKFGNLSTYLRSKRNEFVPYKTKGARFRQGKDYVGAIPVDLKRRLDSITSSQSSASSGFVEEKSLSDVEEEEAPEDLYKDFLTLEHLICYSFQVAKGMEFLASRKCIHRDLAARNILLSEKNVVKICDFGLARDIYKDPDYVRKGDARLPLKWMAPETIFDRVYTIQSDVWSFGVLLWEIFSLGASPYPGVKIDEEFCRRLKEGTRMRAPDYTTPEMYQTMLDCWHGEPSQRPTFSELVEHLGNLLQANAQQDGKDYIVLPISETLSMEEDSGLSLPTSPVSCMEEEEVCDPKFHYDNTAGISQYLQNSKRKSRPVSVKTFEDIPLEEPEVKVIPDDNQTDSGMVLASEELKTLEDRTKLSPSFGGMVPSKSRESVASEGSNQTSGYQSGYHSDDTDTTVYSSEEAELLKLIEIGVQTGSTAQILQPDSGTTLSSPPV
Inhibitory activities of compounds against KDR (VEGFR2) were also measured by Invitrogen using Z′-LYTE® Method as described above with the following modification. The 2× KDR (VEGFR2)/Tyr 01 mixture is prepared in 50 mM HEPES pH 7.5, 0.01% BRIJ-35, 10 mM MgCl2, 1 mM EGTA. The final 10 μL Kinase Reaction consists of 0.5-11.7 ng KDR (VEGFR2) and 2 μM Tyr 01 in 50 mM HEPES pH 7.5, 0.01% BRIJ-35, 10 mM MgCl2, 1 mM EGTA. After the 1 hour Kinase Reaction incubation, 5 μL of a 1:256 dilution of Development Reagent B is added.
The scale utilized in Table 5 is as follows: +++ less than 100 nM; and ++ greater than 100 nM

The next assay deals with A375 cells. Put plainly: Inhibition of cancer cell growth, MTT assay, A375. Format: cell-based. Conditions: Homo sapiens, A-375, 72 h exposure. Here is the method:
(§2) Inhibition of cell growth by compounds was measured using MTT assay (Mosmann, T., Journal of Immunological Methods, 1983, 65, 55-63). Tumor cell lines were purchased from ATCC (American Type Culture Collection, Manassas, Va.). All cell lines were maintained in RPMI 1640 (Hyclone) supplemented with 10% fetal bovine serum (FBS, Hyclone), glutamine (2 mM, Hyclone), and antibiotics (penicillin 100 U/mL and streptomycin 50 μg/mL) at 37° C. in a humidified atmosphere of 5% CO2 in air. Taxol (as a positive control, Sigma) and compounds were dissolved in DMSO (Sigma), and the final concentration of DMSO in the medium was 1%. Tumor cells were plated in 96-well plates at densities of about 4000 cells/well of a 96-well plate and allowed to adhere/grow for 24 h. They were then treated with various concentrations of drug for 72 h. 3-(4,5-Dimethylthiazol-2-yl)-2,5-diphenyltetrazolium bromide (MTT, Sigma) was used to determine the number of viable cells at the time of compound addition and the number of cells remaining after 72 h compound exposure. The number of cells remaining after 72 h was compared to the number of viable cells at the time of compound addition by measuring the absorbance at 570 nm, allowing for the calculation of growth inhibition.
(§3) All concentrations of compounds were tested in triplicate and controls were averaged over 4 wells. IC50 was calculated by plotting the concentration of compound vs the percentage of inhibition in treated wells using GraphPad Prism 5. […] The scale utilized in Table 6 is as follows: +++ less than 1000 nM; ++ between 1000 nM and 5000 nM; and + greater than 5000 nM. The scale utilized in Table 7 is as follows: +++ less than 2000 nM; ++ between 2000 nM and 5000 nM; and + greater than 5000 nM.
(Tetrazolium dyes change colour on reduction, which living cells bring about.)

The next assay concerns A549 cells. Put plainly: Inhibition of cancer cell growth, MTT assay, A549. Format: cell-based. Conditions: Homo sapiens, A549, 72 h exposure. Here is the method: as §2, §3

Chain of BRAF V600E (P15056 whole entry V600E): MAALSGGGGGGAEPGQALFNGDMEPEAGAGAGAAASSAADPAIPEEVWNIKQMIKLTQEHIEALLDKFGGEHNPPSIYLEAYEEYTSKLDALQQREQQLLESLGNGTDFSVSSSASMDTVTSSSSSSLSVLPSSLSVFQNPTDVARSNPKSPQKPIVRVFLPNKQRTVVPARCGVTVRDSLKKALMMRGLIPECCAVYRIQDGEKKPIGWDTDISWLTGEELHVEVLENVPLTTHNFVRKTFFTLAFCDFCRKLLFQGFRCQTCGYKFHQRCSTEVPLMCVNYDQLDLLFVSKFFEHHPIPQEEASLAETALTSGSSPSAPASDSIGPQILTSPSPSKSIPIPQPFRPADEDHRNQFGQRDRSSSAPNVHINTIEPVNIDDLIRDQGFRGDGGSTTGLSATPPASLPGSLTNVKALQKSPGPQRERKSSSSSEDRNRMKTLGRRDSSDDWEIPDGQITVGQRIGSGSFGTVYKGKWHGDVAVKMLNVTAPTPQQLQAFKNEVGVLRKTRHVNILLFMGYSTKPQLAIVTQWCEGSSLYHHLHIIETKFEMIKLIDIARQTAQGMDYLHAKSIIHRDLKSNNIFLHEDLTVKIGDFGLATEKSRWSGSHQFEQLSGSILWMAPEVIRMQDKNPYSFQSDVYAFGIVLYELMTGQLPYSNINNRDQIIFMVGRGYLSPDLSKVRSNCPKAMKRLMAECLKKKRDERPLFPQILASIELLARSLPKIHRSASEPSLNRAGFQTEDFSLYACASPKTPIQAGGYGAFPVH

In the case of `O=C(Nc1cccc(F)c1)Nc1cc(F)cc(C(=O)c2ccc3ncc(N4CCOCC4)nc3c2)c1` [Compound C037, 1-(3-fluoro-5-(3-morpholinoquinoxaline-6-carbonyl)phenyl)-3-(3-fluorophenyl)urea], the results for the inhibition at 1 µM at BRAF V600E and at KDR (VEGFR2) were over 89% and under 70%, respectively. Also, the IC50 (as a rule, the concentration that gives 50% inhibition) in the assay on A375 cells was 1 to 5 µM; with A549 cells, over 5 µM.
The matching figures for `O=C(Nc1cc(F)cc(C(=O)c2ccc3ncc(N4CCOCC4)nc3c2)c1)c1cccc(F)c1` [Compound C142, 3-fluoro-N-(3-fluoro-5-(3-morpholinoquinoxaline-6-carbonyl)phenyl)benzamide]: 70 to 89%, 70 to 89%, 1 to 5 µM and 2 to 5 µM.
As to `O=C(Nc1cc(F)cc(Cl)c1)Nc1cc(F)cc(C(=O)c2ccc3nccnc3c2)c1` [Compound C062, 1-(3-chloro-5-fluorophenyl)-3-(3-fluoro-5-(quinoxaline-6-carbonyl)phenyl)urea], the inhibition (commonly the percentage by which the read-out fell short of the control) at 1 µM on BRAF V600E is over 89%; on KDR (VEGFR2) it was under 70%. Further, the half-maximal inhibitory concentration (IC50) with A375 cells is over 5 µM; in the assay on A549 cells it was 2 to 5 µM.
The matching figures for `O=C(Nc1cccc(F)c1)Nc1cc(F)c(F)c(C(=O)c2ccc3ncc(N4CCOCC4)nc3c2)c1F` [Compound C033, 1-(3-fluorophenyl)-3-(2,4,5-trifluoro-3-(3-morpholinoquinoxaline-6-carbonyl)phenyl)urea]: 70 to 89%, under 70%, 1 to 5 µM and 2 to 5 µM.
The matching figures for `O=C(Nc1cc(F)cc(Cl)c1)Nc1cc(F)cc(C(=O)c2ccc3ncc(N4CCOCC4)nc3c2)c1` [Compound C060, 1-(3-chloro-5-fluorophenyl)-3-(3-fluoro-5-(3-morpholinoquinoxaline-6-carbonyl)phenyl)urea]: over 89%, under 70%, 1 to 5 µM and 2 to 5 µM.
The corresponding values for `O=C(Nc1cc(F)cc(C(=O)c2ccc3nccnc3c2)c1)Nc1ccc(Cl)c(Cl)c1` [Compound C069, 1-(3,4-dichlorophenyl)-3-(3-fluoro-5-(quinoxaline-6-carbonyl)phenyl)urea] are over 89%, under 70%, over 5 µM and under 2 µM.
`O=C(Nc1ccc(C(F)(F)F)cc1)Nc1ccc(F)c(C(=O)c2ccc3nccnc3c2)c1` [Compound C075, 1-(4-fluoro-3-(quinoxaline-6-carbonyl)phenyl)-3-(4-(trifluoromethyl)phenyl)urea]: the values for the inhibition at 1 µM at BRAF V600E and at KDR (VEGFR2) were over 89% and under 70%, respectively. The results for the IC50 in the assay with A375 cells and in the assay with A549 cells were under 1 µM and under 2 µM, respectively.
The matching figures for `O=C(Nc1ccc(F)c(C(=O)c2ccc3nccnc3c2)c1)c1ccc(Cl)c(C(F)(F)F)c1` [Compound C117, 4-chloro-N-(4-fluoro-3-(quinoxaline-6-carbonyl)phenyl)-3-(trifluoromethyl)benzamide]: over 89%, 70 to 89%, 1 to 5 µM and 2 to 5 µM.
The corresponding values for `O=C(Nc1cccc(C(F)(F)F)c1)Nc1cc(F)c(F)c(C(=O)c2ccc3ncc(N4CCOCC4)nc3c2)c1F` [Compound C034, 1-(2,4,5-trifluoro-3-(3-morpholinoquinoxaline-6-carbonyl)phenyl)-3-(3-(trifluoromethyl)phenyl)urea] are under 70%, under 70%, 1 to 5 µM and 2 to 5 µM.
The corresponding values for `O=C(Nc1cccc(C(F)(F)F)c1)Nc1cc(F)c(F)c(C(=O)c2ccc3nccnc3c2)c1` [Compound C042, 1-(3,4-difluoro-5-(quinoxaline-6-carbonyl)phenyl)-3-(3-(trifluoromethyl)phenyl)urea] are over 89%, under 70%, 1 to 5 µM and 2 to 5 µM.
Consider `O=C(Nc1cc(F)cc(Cl)c1)Nc1ccc(F)c(C(=O)c2ccc3nccnc3c2)c1` [Compound C078, 1-(3-chloro-5-fluorophenyl)-3-(4-fluoro-3-(quinoxaline-6-carbonyl)phenyl)urea], for which the inhibition at 1 µM on BRAF V600E is over 89%; at KDR (VEGFR2), 70 to 89%. Besides, the IC50 in the assay with A375 cells lay in the range of 1 to 5 µM; in the assay on A549 cells, 2 to 5 µM.
The matching figures for `O=C(Nc1cccc(C(=O)c2ccc3ncc(N4CCOCC4)nc3c2)c1)c1cccc(F)c1` [Compound C118, 3-fluoro-N-(3-(3-morpholinoquinoxaline-6-carbonyl)phenyl)benzamide]: over 89%, 70 to 89%, 1 to 5 µM and 2 to 5 µM.
The matching figures for `O=C(Nc1cccc(C(=O)c2ccc3ncc(N4CCCC4)nc3c2)c1)c1ccc(Cl)c(C(F)(F)F)c1` [Compound C123, 4-chloro-N-(3-(3-(pyrrolidin-1-yl)quinoxaline-6-carbonyl)phenyl)-3-(trifluoromethyl)benzamide]: 70 to 89%, 70 to 89%, over 5 µM and over 5 µM.
The corresponding values for `O=C(Nc1cccc(F)c1)Nc1ccc(F)c(C(=O)c2ccc3ncc(N4CCNCC4)nc3c2)c1` [Compound C084, 1-(4-fluoro-3-(3-(piperazin-1-yl)quinoxaline-6-carbonyl)phenyl)-3-(3-fluorophenyl)urea] are over 89%, over 89%, under 1 µM and 2 to 5 µM.
`O=C(Nc1ccc(Cl)c(F)c1)Nc1ccc(F)c(C(=O)c2ccc3nccnc3c2)c1` [Compound C077, 1-(4-chloro-3-fluorophenyl)-3-(4-fluoro-3-(quinoxaline-6-carbonyl)phenyl)urea]: the inhibition at 1 µM at BRAF V600E was over 89%; at KDR (VEGFR2), under 70%. The values for the IC50 in the assay with A375 cells and with A549 cells were 1 to 5 µM and over 5 µM, respectively.
The matching figures for `O=C(Nc1ccc(Cl)cc1)Nc1cc(F)cc(C(=O)c2ccc3ncc(N4CCOCC4)nc3c2)c1` [Compound C045, 1-(4-chlorophenyl)-3-(3-fluoro-5-(3-morpholinoquinoxaline-6-carbonyl)phenyl)urea]: over 89%, under 70%, under 1 µM and 2 to 5 µM.
The matching figures for `O=C(Nc1ccc(F)cc1)Nc1ccc(F)c(C(=O)c2ccc3nccnc3c2)c1` [Compound C070, 1-(4-fluoro-3-(quinoxaline-6-carbonyl)phenyl)-3-(4-fluorophenyl)urea]: over 89%, over 89%, 1 to 5 µM and over 5 µM.
The matching figures for `O=C(Nc1ccc(F)cc1)Nc1cc(F)cc(C(=O)c2ccc3nccnc3c2)c1` [Compound C064, 1-(3-fluoro-5-(quinoxaline-6-carbonyl)phenyl)-3-(4-fluorophenyl)urea]: over 89%, under 70%, over 5 µM and over 5 µM.
